Data set [1] has as its target Isocitrate dehydrogenase [NADP], mitochondrial (Homo sapiens, UniProt P48735, R140Q). Kind of data set: Inhibition of IDH2 R140Q mutant (unknown origin) expressed in Escherichia coli BL21 (DE3) assessed as NADPH consumption using alpha-KG as substrate measured after 60 mins.
Data set [2] concerns the target T1, Isocitrate dehydrogenase [NADP], mitochondrial (Homo sapiens, UniProt P48735).
T1 sequence (P48735 whole entry): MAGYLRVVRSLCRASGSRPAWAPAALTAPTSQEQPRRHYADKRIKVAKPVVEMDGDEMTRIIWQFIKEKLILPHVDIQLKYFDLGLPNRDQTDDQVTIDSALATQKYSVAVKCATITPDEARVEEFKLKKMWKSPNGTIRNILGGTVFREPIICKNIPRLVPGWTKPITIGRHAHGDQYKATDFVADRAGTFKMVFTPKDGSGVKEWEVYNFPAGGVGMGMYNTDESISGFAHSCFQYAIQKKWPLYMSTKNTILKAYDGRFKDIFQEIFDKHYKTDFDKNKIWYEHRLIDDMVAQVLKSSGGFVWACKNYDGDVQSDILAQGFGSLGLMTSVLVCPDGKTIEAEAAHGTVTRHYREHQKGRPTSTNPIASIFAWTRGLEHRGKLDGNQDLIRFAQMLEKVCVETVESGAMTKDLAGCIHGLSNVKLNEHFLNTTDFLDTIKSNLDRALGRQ
As to the kind of experiment: Inhibition of wild type IDH2 (unknown origin) expressed in Escherichia coli BL21 (DE3) assessed as NADPH consumption using alpha-KG as substrate measured after 60 mins.

For data set [3], the target named is Isocitrate dehydrogenase [NADP], mitochondrial (Homo sapiens, UniProt P48735, R172K). Kind of data set: Inhibition of IDH2 R172K mutant (unknown origin) expressed in Escherichia coli BL21 (DE3) assessed as NADPH consumption using alpha-KG as substrate measured after 60 mins.
Data set [4] in a line: Half life in Sprague-Dawley rat at 1 mg/kg, iv measured upto 24 hrs by LC-MS/MS analysis. It counts as ADME, organism-based. The note with it: in vivo.
Data set [5] can be described thus: Cmax in Sprague-Dawley rat at 10 mg/kg, po measured upto 24 hrs by LC-MS/MS analysis. The settings on record: in vivo. It is filed as ADME, organism-based. Also noted: time < 24 hrs, dose 10 mg/kg, route po.
Data set [6] is described as follows: Tmax in Sprague-Dawley rat at 10 mg/kg, po measured upto 24 hrs by LC-MS/MS analysis. It counts as ADME, organism-based. The note with it: in vivo.
Data set [7] in a line: AUC (0 to t) in Sprague-Dawley rat at 10 mg/kg, po measured upto 24 hrs by LC-MS/MS analysis. The note with it: in vivo. Set-up: time < 24 hrs, dose 10 mg/kg, route po. It is filed as ADME, organism-based.
The nature of data set [8]: Half life in Sprague-Dawley rat at 10 mg/kg, po measured upto 24 hrs by LC-MS/MS analysis. The settings on record: in vivo. It is filed as ADME, organism-based.
The nature of data set [9]: Tmax in Sprague-Dawley rat at 1 mg/kg, iv measured upto 24 hrs by LC-MS/MS analysis. It counts as ADME, organism-based. The settings on record: in vivo.
A short description of data set [10]: Apparent volume of distribution in Sprague-Dawley rat at 1 mg/kg, iv measured upto 24 hrs by LC-MS/MS analysis. The note with it: in vivo, read-out: Vz. It is filed as ADME, organism-based.
Data set [11] has as its system HT-1080. As to the kind of experiment: Antiproliferative activity against human HT-1080 cells assessed as cell viability at 0.3 to 10 uM treated for 2 hrs followed by compound removal after 72 hrs by CellTiter-Glo assay. It counts as functional, cell-based. The note with it: dose 0.3-10 µM.
The test system of data set [12] is Acute myeloid leukemic cell. As to the kind of experiment: Antiproliferative activity against human primary AML cells expressing IDH1-R132 mutant assessed as cell viability at 0.3 to 10 uM treated for 2 hrs followed by compound removal after 72 hrs by CellTiter-Glo assay. The note with it: dose 0.3-10 µM. It is filed as functional, cell-based.
Data set [13] deals with Isocitrate dehydrogenase [NADP] cytoplasmic (Homo sapiens, UniProt O75874). As to the kind of experiment: Inhibition of wild type IDH1 (unknown origin) expressed in Escherichia coli BL21 (DE3) assessed as NADPH consumption using alpha-KG as substrate measured after 60 mins.
Data set [14] has as its target T2, Isocitrate dehydrogenase [NADP] cytoplasmic (Homo sapiens, UniProt O75874, R132H). Kind of data set: Inhibition of IDH1 R132H mutant (unknown origin) expressed in HEK293T cells assessed as inhibition of 2-HG generation measured after 48 hrs by LC-MS/MS analysis. It counts as cell-based.
In data set [15] the test system is Isocitrate dehydrogenase [NADP] cytoplasmic (Homo sapiens), O75874 [R132H]. As to the kind of experiment: Binding affinity to IDH1 R132H mutant (unknown origin) expressed in Escherichia coli BL21 (DE3) assessed as ratio of Kinact/Ki.
A short description of data set [16]: Apparent volume of distribution in Sprague-Dawley rat at 10 mg/kg, po measured upto 24 hrs by LC-MS/MS analysis. It counts as ADME, organism-based. The note with it: in vivo.
Data set [17] is described as follows: In vivo inhibition of IDH1 mutant activity in tumor of human HT-1080 cells xenografted in Balb/c mouse model assessed as reduction in 2-HG level at […], ip single administration measured upto 2 hrs relative to control. It counts as functional.
Data set [18] has as its target Isocitrate dehydrogenase [NADP] cytoplasmic (Homo sapiens, UniProt O75874, R132C). Kind of data set: Inhibition of IDH1 R132C mutant (unknown origin) expressed in Escherichia coli BL21 (DE3) assessed as NADPH consumption using alpha-KG as substrate measured after 60 mins.
Data set [19] deals with T2, Isocitrate dehydrogenase [NADP] cytoplasmic. As to the kind of experiment: Reversible binding affinity to IDH1 R132H mutant (unknown origin) expressed in Escherichia coli BL21 (DE3) assessed as inhibition constant.
Data set [20] concerns Isocitrate dehydrogenase [NADP] cytoplasmic (Homo sapiens), O75874 [R132H]. Kind of data set: Binding affinity to IDH1 R132H mutant (unknown origin) expressed in Escherichia coli BL21 (DE3) assessed as inactivation constant.
Data set [21] is described as follows: Clearance in Sprague-Dawley rat at 10 mg/kg, po measured upto 24 hrs by LC-MS/MS analysis. It counts as ADME, organism-based. The settings on record: in vivo.
Data set [22] can be described thus: Cmax in Sprague-Dawley rat at 1 mg/kg, iv measured upto 24 hrs by LC-MS/MS analysis. It is filed as ADME, organism-based. Also noted: dose 1 mg/kg, time < 24 hrs, route iv. The note with it: in vivo.
Data set [23] addresses T2, Isocitrate dehydrogenase [NADP] cytoplasmic. As to the kind of experiment: Inhibition of IDH1 R132H mutant (unknown origin) expressed in Escherichia coli BL21 (DE3) assessed as NADPH consumption using alpha-KG as substrate measured after 60 mins.
Data set [24] in a line: Oral bioavailability in Sprague-Dawley rat at 10 mg/kg measured upto 24 hrs by LC-MS/MS analysis. It is filed as ADME, organism-based. The note with it: in vivo.
Data set [25] can be described thus: AUC (0 to t) in Sprague-Dawley rat at 1 mg/kg, iv measured upto 24 hrs by LC-MS/MS analysis. Also noted: dose 1 mg/kg, time < 24 hrs, route iv. The settings on record: in vivo. It counts as ADME, organism-based.

Active and inactive are the calls of the source. No cut-off for these calls is given here.

T2 sequence (O75874 2-414 R132H limits assumed): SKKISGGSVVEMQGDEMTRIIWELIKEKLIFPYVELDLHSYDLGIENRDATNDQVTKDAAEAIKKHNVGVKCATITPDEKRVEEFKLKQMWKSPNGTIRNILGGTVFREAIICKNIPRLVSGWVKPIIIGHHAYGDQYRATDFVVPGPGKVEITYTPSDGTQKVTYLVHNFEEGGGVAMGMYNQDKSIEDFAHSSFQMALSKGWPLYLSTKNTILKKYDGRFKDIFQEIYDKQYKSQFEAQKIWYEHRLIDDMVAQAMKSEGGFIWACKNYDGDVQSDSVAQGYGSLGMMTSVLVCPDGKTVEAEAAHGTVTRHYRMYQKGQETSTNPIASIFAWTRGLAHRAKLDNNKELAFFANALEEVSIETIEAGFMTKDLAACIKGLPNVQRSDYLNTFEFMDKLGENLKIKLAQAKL
Chain of Isocitrate dehydrogenase [NADP], mitochondrial (Homo sapiens, UniProt P48735, R172K) (P48735 40-452 R172K limits assumed): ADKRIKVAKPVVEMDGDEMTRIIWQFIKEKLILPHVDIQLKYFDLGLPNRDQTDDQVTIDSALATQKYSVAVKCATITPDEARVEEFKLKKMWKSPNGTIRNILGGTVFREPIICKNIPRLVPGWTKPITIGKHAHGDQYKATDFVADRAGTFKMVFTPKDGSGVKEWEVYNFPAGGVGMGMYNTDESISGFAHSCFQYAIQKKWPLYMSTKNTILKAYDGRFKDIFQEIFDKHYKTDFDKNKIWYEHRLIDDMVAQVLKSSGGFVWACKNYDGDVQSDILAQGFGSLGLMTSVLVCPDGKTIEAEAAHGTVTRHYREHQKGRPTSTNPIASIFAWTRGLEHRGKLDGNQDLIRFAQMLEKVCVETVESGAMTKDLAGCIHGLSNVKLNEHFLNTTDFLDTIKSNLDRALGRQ
Chain of Isocitrate dehydrogenase [NADP] cytoplasmic (Homo sapiens), O75874 [R132H] (O75874 whole entry R132H): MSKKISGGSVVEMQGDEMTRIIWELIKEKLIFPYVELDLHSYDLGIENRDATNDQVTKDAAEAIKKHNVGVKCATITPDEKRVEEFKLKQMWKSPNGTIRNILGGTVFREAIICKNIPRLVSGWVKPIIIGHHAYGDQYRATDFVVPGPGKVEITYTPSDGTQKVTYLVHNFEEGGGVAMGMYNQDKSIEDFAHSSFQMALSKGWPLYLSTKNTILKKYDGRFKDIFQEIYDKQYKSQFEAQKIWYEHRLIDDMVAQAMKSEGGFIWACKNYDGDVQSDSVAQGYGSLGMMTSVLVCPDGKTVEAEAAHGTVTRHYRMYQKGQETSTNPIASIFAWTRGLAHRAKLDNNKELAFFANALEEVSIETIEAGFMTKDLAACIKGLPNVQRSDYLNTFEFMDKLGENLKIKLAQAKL
Chain of Isocitrate dehydrogenase [NADP], mitochondrial (Homo sapiens, UniProt P48735, R140Q) (P48735 40-452 R140Q limits assumed): as the sequence (P48735 40-452 R172K limits assumed) above, with R101Q, K133R counted along it
Chain of Isocitrate dehydrogenase [NADP] cytoplasmic (Homo sapiens, UniProt O75874, R132C) (O75874 2-414 R132C limits assumed): as the sequence (O75874 2-414 R132H limits assumed) above, with H131C counted along it
Chain of Isocitrate dehydrogenase [NADP] cytoplasmic (Homo sapiens, UniProt O75874) (O75874 whole entry): as the sequence (O75874 whole entry R132H) above, with H132R counted along it

Take `N#Cc1ccnc(N2C(=O)CC[C@H]2C(=O)N(c2cncc(F)c2)[C@H](C(=O)NC2CC(F)(F)C2)c2ccccc2Cl)c1` [IVOSIDENIB]: the IC50 in data set [1], in data set [2] and in data set [3] was greater than 10000 nM in each case.
With `C=CS(=O)(=O)NC1CCN(c2ccc([C@H](C)Nc3ncc(F)c(N4C(=O)OC[C@@H]4C(C)C)n3)cc2)CC1`, the t1/2 in data set [4] came out at 9.6 min. The Cmax is 88.1 ng/mL in data set [5] and 199.67 ng/mL in data set [22]. Further, the figures for the Tmax in [6] and in data set [9] were 15 min and 1.8 min, respectively. Further, the results for the AUCt in data set [7] and in data set [25] were 36.31 ng·h/mL and 267.61 ng·h/mL, respectively. Moreover, the half-life in data set [8] is 18 min. Further, the Vd in data set [10] was found to be 5.39 L/kg. Further, the result in data set [11] and in data set [12] was Active. Also, the IC50 in [13] is greater than 10000 nM; in data set [14], 28 nM; in data set [1], greater than 10000 nM; in [2], greater than 10000 nM; in data set [18], 139 nM; in [3], greater than 10000 nM. The IC50 in [23] is 4.7 nM. For the same compound, the Ratio in data set [15] was determined as 0.007 µM⁻¹ s⁻¹. Moreover, the Vz in data set [16] was 118.878 L/kg. In [17], the “inhibition (INH)” value is recorded as greater than 85%. Further, the Ki in data set [19] came out at 37 nM. The Kinact in data set [20] stood at 0.015 min⁻¹. Further, the apparent clearance (CL/F) in data set [21] was 260 L/h/kg. The same compound came in with a F in data set [24] of 9.26%.

The values are drawn from ChEMBL document CHEMBL5370557, “Structure-based discovery of IHMT-IDH1-053 as a potent irreversible IDH1 mutant selective inhibitor” (Eur J Med Chem, 2023).
